Drawing on ChEMBL document CHEMBL1122633, “Interactions of antitumor drugs with natural DNA: 1H NMR study of binding mode and kinetics” (J Med Chem, 1984), this text covers Log Kd for 21 molecules.

In this test the test system is Nucleic Acid. The test is described as follows: DNA binding dissociation constant as KD. It counts as nucleic-acid assay.

`CCN(CC)CCOc1ccc2c(c1)C(=O)c1cc(OCCN(CC)CC)ccc1-2`: the Log Kd amounted to 5.64. The result for `Cc1c2ccncc2c(C)c2c1[nH]c1ccccc12` reads 5.18; that for `CS(=O)(=O)Nc1cccc(Nc2c3ccccc3nc3ccccc23)c1`, 5.8. The molecule `c1ccc2c(c1)[nH]c1cnccc12` yielded a Log Kd of 5.34. Take `Cc1cc2nc3ccccc3n(-c3cccc(N(C)C)c3)c-2c(C)c1=N`: the Log Kd came out at 3.64. For `COc1cccc2c1C(=O)c1c(O)c3c(c(O)c1C2=O)C[C@@](O)(C(C)=O)C[C@@H]3O[C@H]1C[C@H](N)[C@H](O)[C@H](C)O1`, the Log Kd is 6.49.

The molecule `CS(=O)(=O)Nc1ccccc1Nc1c2ccccc2nc2ccccc12` yielded a Log Kd of 5.72. The result for `COc1cc(NS(C)(=O)=O)ccc1Nc1c2ccccc2nc2ccccc12` reads 5.14; that for `CCN(CC)CCCC(C)Nc1c2ccc(Cl)cc2nc2ccc(OC)cc12` (stereo unspecified), 4.25. The result for `Cn1cc(NC(=O)c2cc(NC(=O)c3cc(NC=O)cn3C)cn2C)cc1C(=O)NCCC(=N)N` reads 6.06; that for `Cc1c2ccncc2c(C)c2c1[nH]c1ccc(O)cc12`, 0.3; that for `Nc1c2ccccc2nc2ccccc12`, 5.7. Consider `c1ccc2c(c1)ccc1[n+]2Cc2ccc3ccccc3[n+]2-1`, for which the Log Kd was 4.7.

Turning to `C[n+]1ccc(Nc2ccc(NC(=O)c3ccc(Nc4cc[n+](C)c5ccc(N)cc45)cc3)cc2)cc1`, the Log Kd is 6.9. The result for `CN(C)CCN1C(=O)c2cccc3cc([N+](=O)[O-])cc(c23)C1=O` reads 5.16; that for `CC[n+]1c(-c2ccccc2)c2cc(N)ccc2c2ccc(N)cc21`, 5.7. For `CC[n+]1c(-c2ccccc2)c2cc(N)ccc2c2ccccc21` the value was 4.9; for `CCN(CC)CCCC(C)Nc1ccnc2cc(Cl)ccc12` (stereo unspecified), 4.25. `C[n+]1c(-c2ccccc2)c2cc(N)ccc2c2ccc(N)cc21` registered a Log Kd of 5.7. For `Cc1c2cc[n+](C)cc2c(C)c2c1[nH]c1ccc(O)cc12` the value was 6.11.

Molecule `CS(=O)(=O)Nc1ccc(Nc2c3ccccc3nc3ccccc23)cc1` displayed a Log Kd of 5.63.
